This passage reports IC50 results from patent publication US8796272B2, “Glycine transporter-inhibiting substances” (Taisho Pharmaceutical Co., Ltd, priority 2011, dated 2014).

For this assay, the target named is T1, human type 1 glycine transporter (GlyT1) (Homo sapiens, UniProt P48067).
T1 construct: T98G cells (glioma cells) expressing human type 1 glycine transporter (GlyT1) were used; endogenous in cells; host or cells: T98G cells (human glioma)
T1 sequence (P48067 1-706): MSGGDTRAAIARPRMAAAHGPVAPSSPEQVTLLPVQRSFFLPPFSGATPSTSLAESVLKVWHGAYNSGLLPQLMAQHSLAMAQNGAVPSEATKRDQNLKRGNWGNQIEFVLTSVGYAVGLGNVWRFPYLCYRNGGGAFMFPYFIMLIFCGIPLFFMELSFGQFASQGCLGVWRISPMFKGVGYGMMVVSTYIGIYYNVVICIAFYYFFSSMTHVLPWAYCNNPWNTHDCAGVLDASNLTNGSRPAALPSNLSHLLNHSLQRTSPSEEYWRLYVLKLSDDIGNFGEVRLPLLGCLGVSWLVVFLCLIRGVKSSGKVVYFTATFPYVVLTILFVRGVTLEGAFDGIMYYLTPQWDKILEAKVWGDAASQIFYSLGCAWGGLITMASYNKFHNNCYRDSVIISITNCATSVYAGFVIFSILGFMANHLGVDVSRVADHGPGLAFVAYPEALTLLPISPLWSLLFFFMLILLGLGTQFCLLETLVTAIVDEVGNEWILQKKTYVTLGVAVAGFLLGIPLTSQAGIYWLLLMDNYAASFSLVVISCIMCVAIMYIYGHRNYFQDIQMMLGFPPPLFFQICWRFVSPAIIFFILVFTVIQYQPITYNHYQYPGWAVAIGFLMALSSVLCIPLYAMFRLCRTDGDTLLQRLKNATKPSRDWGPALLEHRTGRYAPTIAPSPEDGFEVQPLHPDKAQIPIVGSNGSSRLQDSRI
The experiment in a line: Glycine uptake inhibition experiment ([3H] glycine uptake). The assay is classed as cell-based. The note with it: T98G cells (glioma cells) expressing human GlyT1; [3H] glycine 250 nM; 10-min pretreatment, 15 minutes at room temperature; read-out: glycine uptake inhibitory activity (IC50 value). As for the experimental part:
A glycine uptake experiment was conducted in accordance with the method published in Neuron, 8, 927-935, 1992. In the experiment, T98G cells (glioma cells) expressing human type 1 glycine transporter (GlyT1) were used. The T98G cells were seeded in a 96-well plate at 2.0×10^4 cells/well and cultured overnight in a CO2 incubator. The test substance was dissolved in a 100% DMSO solution and then dissolved in a 10 mM HEPES buffer solution (pH 7.4) containing 150 mM sodium chloride, 1 mM calcium chloride, 5 mM potassium chloride, 1 mM magnesium chloride, 10 mM glucose and 0.2% bovine serum albumin. After removing the cell culture medium, the test substance was subjected to a 10-min pretreatment. Subsequently, the test substance and [^3H] glycine (final concentration: 250 nM) were added to the cells and reaction was performed at room temperature for 15 minutes. After the end of the reaction, the extracellular fluid was aspirated with a manifold to remove excess labeled glycine present outside the cells, and then the cells were lysed with a 0.5 M aqueous sodium hydroxide solution. The glycine content in the cells was determined by measuring the radioactivity in the cell lysate with a liquid scintillation counter. Glycine uptake in the presence of 10 μM ALX^5407 was defined as non-specific uptake, and the value calculated by subtracting the amount of the non-specific uptake from the total uptake in the absence of 10 μM ALX5407 was defined as specific uptake. In addition, glycine uptake inhibitory activity (IC50 value) was calculated from an inhibition curve at the concentrations of each test substance ranging from 10^−9 to 10^−5 M.
It should be noted that ALX^5407 is an HCl salt of N-[(3R)-3-([1,1′-biphenyl]-4-yloxy)-3-(4-fluorophenyl)propyl]-N-methylglycine.
The IC50 is the concentration that inhibits the measured activity by half. With `CC(C)[C@H]1CN(c2ccc(C(F)(F)F)nc2)C(=O)N1CC(=O)Nc1nnc(C(F)(F)F)s1` [Compound 54], the IC50 amounted to 0.8 µM. As for `CCc1ccnc(NC(=O)CN2C(=O)N(c3cnc(C(F)(F)F)nc3)C[C@@H]2C(C)C)c1` [Compound 165], the IC50 was 0.15 µM.

Turning to `CC(C)[C@H]1CN(c2ncc(Cl)cn2)C(=O)N1CC(=O)Nc1cc(C(F)(F)F)ccn1` [Compound 62], the IC50 came out at 0.033 µM.

For the molecule `CCOc1ccc(N2C[C@H](C(C)C)N(CC(=O)Nc3cc(Cl)ccn3)C2=O)nc1` [Compound 186], the IC50 was 0.045 µM. To `O=C(CN1C(=O)N(c2ncc(C(F)(F)F)cc2F)C[C@@H]1CC1CC1)Nc1cc(Cl)ccn1` [Compound 152] belongs 0.043 µM. To `CC(C)(C)[C@H]1CN(c2ccc(C(F)(F)F)nc2)C(=O)N1CC(=O)Nc1cccc(C(F)(F)F)c1` [Compound 13] belongs 0.074 µM. To `CC[C@H](C)[C@H]1CN(c2ncc(C3CC3)cn2)C(=O)N1CC(=O)Nc1cc(Cl)ccn1` [Compound 249] belongs 0.018 µM; to `O=C(CN1C(=O)N(c2ccc(C(F)(F)F)nc2)C[C@@H]1CC1CCCCC1)Nc1cccc(C(F)(F)F)c1` [Compound 8], 0.66 µM.

Consider `CC(C)[C@H]1CN(c2ccc(C(F)(F)F)nc2)C(=O)N1CC(=O)Nc1cc(C(C)(C)C)no1` [Compound 103], for which the half-inhibitory concentration (IC50) was 0.23 µM.

As for `COC(C)(C)[C@H]1CN(c2ccc(C(F)(F)F)nc2)C(=O)N1CC(=O)Nc1cc(C(F)(F)F)ccn1` [Compound 148], the IC50 is 0.075 µM. Turning to `CC(C)[C@H]1CN(c2ccc(C(F)(F)F)nc2)C(=O)N1CC(=O)Nc1cncc(Cl)c1` [Compound 61], the IC50 came out at 0.053 µM.

On to `CCOc1cnc(N2C[C@H]([C@@H](C)CC)N(CC(=O)Nc3cc(C4CC4)ccn3)C2=O)nc1` [Compound 250], for which the half-inhibitory concentration (IC50) turned out to be 0.024 µM. To `CCOc1cnc(N2C[C@H]([C@@H](C)CC)N(CC(=O)Nc3cc(Cl)ccn3)C2=O)nc1` [Compound 248] belongs 0.016 µM; to `O=C(CN1C(=O)N(c2ccc(C(F)(F)F)nc2)C[C@@H]1c1ccccc1)Nc1cccc(C(F)(F)F)c1` [Compound 12], 0.071 µM. To `CCc1cnc(N2C[C@H](C(C)C)N(CC(=O)Nc3ccc(C(F)(F)F)nc3)C2=O)nc1` [Compound 104] belongs 0.24 µM; to `CC(C)[C@H]1CN(c2ccc(F)cn2)C(=O)N1CC(=O)Nc1cccc(C(F)(F)F)c1` [Compound 11], 0.089 µM.

For `COc1cnc(N2C[C@H](C(C)C)N(CC(=O)Nc3cc(C(F)(F)F)ccn3)C2=O)nc1` [Compound 93], the IC50 is 0.054 µM. To `CCOc1cnc(N2C[C@H]([C@@H](F)CC)N(CC(=O)Nc3cc(C(F)(F)F)ccn3)C2=O)nc1` [Compound 220] belongs 0.017 µM. To `CC(C)[C@H]1CN(c2ncc(C3CC3)cn2)C(=O)N1CC(=O)Nc1cc(C(F)(F)F)ccn1` [Compound 193] belongs 0.022 µM; to `CC(C)[C@H]1CN(c2ncc(F)cn2)C(=O)N1CC(=O)Nc1cc(Cl)ccn1` [Compound 188], 0.6 µM.
